Here are results for 28 compounds from patent US11667602B2, “Compounds and their use” (AstraZeneca AB, priority 2020, dated 2023).

The target of the assay is T1, human RXFP1 (Homo sapiens, UniProt Q9HBX9).
T1 sequence (Q9HBX9 1-757): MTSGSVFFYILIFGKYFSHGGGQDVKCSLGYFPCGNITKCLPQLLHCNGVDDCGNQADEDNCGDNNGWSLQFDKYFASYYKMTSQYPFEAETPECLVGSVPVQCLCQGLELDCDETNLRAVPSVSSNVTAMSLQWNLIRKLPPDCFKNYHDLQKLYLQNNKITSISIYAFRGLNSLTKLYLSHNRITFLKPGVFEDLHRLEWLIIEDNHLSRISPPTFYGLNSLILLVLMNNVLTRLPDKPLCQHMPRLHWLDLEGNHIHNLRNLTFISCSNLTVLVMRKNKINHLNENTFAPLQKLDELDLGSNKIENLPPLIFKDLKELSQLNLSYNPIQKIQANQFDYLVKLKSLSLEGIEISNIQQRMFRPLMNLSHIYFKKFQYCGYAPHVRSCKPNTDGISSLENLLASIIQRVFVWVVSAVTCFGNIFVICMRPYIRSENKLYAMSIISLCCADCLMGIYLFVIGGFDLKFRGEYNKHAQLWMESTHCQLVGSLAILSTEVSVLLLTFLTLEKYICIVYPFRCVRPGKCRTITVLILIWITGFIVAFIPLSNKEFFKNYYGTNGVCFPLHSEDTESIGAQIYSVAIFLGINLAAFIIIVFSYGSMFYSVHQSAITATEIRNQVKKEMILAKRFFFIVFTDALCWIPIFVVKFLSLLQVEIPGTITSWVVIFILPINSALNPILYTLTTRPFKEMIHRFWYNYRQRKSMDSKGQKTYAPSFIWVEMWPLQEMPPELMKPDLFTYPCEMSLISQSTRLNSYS
Briefly: RXFP1 Hu cAMP (Test A). Format: cell-based. More on the design: expressed in transfected cells; host or cells: Jump-In T-REx CHO-K1 cells (ThermoFisher), induced with 10 ng/ml doxycycline for 24 h. The conditions noted are these: RXFP1 Hu cAMP; for EC50: read-out: Test A EC50. The method in brief:
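CHO-K1 (Jump-In T-REx), RXFP1 induced w/ 10 ng/ml doxycycline 24 h, cryopreserved. 0.5 mM IBMX final. cAMP by HTRF, 2 h RT, std curve.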

Take `COc1cc(F)c(O[C@H]2CC[C@@](C)(C(=O)O)CC2)cc1C(=O)N[C@@H]1[C@H]2CC[C@H](C2)[C@@H]1C(=O)NCC(C)(C)OC` [Example 610]: the “Test A Sinf” value is listed as 105%.
In general, EC50 refers to the concentration needed to bring the measured effect to its halfway point. Regarding `COc1cc(F)c(O[C@H]2CC[C@@](C)(C(=O)O)CC2)cc1C(=O)N[C@@H]1[C@H]2CC[C@H](C2)[C@@H]1C(=O)NCC(C)(C)O` [Example 611], the EC50 is above 40000 nM.
Consider `COc1cc(F)c(O[C@H]2CC[C@@](C)(C(=O)O)CC2)cc1C(=O)N[C@@H]1[C@H]2CC[C@H](C2)[C@@H]1C(=O)NCC(C)(C)CO` [Example 612], for which the “Test A Sinf” value was 119%.
On to `COc1cc(F)c(O[C@H]2CC[C@@](C)(C(=O)O)CC2)cc1C(=O)N[C@@H]1[C@H]2CC[C@H](C2)[C@@H]1C(=O)NCC1(C(F)(F)F)CCC1` [Example 613], for which the “Test A Sinf” value came to 109% and the EC50 was found to be 76 nM.
In the case of `COc1cc(F)c(O[C@H]2CC[C@@](C)(C(=O)O)CC2)cc1C(=O)N[C@@H]1[C@H]2CC[C@H](C2)[C@@H]1C(=O)NCC1(C(F)(F)F)CC1` [Example 614], the “Test A Sinf” value is 96%.
On to `COc1cc(F)c(O[C@H]2CC[C@@](C)(C(=O)O)CC2)cc1C(=O)N[C@@H]1[C@H]2CC[C@H](C2)[C@@H]1C(=O)N[C@H](C)C(C)(C)C#N` [Example 615], for which the “Test A Sinf” value amounted to 100% and the concentration for a half-maximal effect (EC50) is 120 nM.
As to `COc1cc(F)c(O[C@H]2CC[C@@](C)(C(=O)O)CC2)cc1C(=O)N[C@@H]1[C@H]2CC[C@H](C2)[C@@H]1C(=O)N[C@@H](C)C(C)(C)C#N` [Example 616], the “Test A Sinf” value is 101% and the 50% effective concentration (EC50) turned out to be 2000 nM.
Taken in the same sequence, the figures for `COc1cc(F)c(O[C@H]2CC[C@@](C)(C(=O)O)CC2)cc1C(=O)N[C@@H]1[C@H]2CC[C@H](C2)[C@@H]1C(=O)NCC(F)(F)C(F)(F)F` [Example 618] were 93% and 100 nM.
Taken in the same sequence, the figures for `COc1cc(F)c(O[C@H]2CC[C@@](C)(C(=O)O)CC2)cc1C(=O)N[C@@H]1[C@H]2CC[C@H](C2)[C@@H]1C(=O)NC1CC(F)(F)C1` [Example 619] were 103% and 390 nM.
Taken in the same sequence, the figures for `COc1cc(F)c(O[C@H]2CC[C@@](C)(C(=O)O)CC2)cc1C(=O)N[C@@H]1[C@H]2CC[C@H](C2)[C@@H]1C(=O)NCC1CC(F)(F)C1` [Example 620] were 93% and 690 nM.
Regarding `COc1cc(C#N)c(O[C@H]2CC[C@@](C)(C(=O)O)CC2)cc1C(=O)N[C@@H]1[C@H]2CC[C@H](C2)[C@@H]1C(=O)NC1CC(F)(F)C1` [Example 623], the “Test A Sinf” value is on record as 104% and the EC50 turned out to be 180 nM.
Regarding “(1R,4s)-4-(2-Cyano-4-fluoro-5-(((2S*,3R*)-3-(((1-methylcyclobutyl)methyl)carbamoyl)bicyclo[2.2.2]octan-2-yl)carbamoyl)phenoxy)-1-methylcyclohexane-1-carboxylic acid [Example 589]”, the “Test A Sinf” value came to 83%.
Turning to “(1R,4s)-4-(2-Cyano-4-methoxy-5-(((1R*,2S*,3R*,4S*)-3-(((1-methylcyclobutyl)methyl)carbamoyl)bicyclo[2.2.2]oct-5-en-2-yl)carbamoyl)phenoxy)-1-methylcyclohexane-1-carboxylic acid [Example 541]”, the “Test A Sinf” value was 100%.
Regarding “(1R,4s)-4-(2-Cyano-4-methoxy-5-(((1S*,2R*)-2-(((1-methylcyclobutyl)methyl)carbamoyl)cyclobutyl)carbamoyl)phenoxy)-1-methylcyclohexane-1-carboxylic acid [Example 573]”, the “Test A Sinf” value is recorded as 94%.
On the same count and under the same terms, then “(1R,4s)-4-(2-Fluoro-4-methoxy-5-(((1R*,2S*,3R*,4S*)-3-(((1-methylcyclobutyl)methyl)carbamoyl)bicyclo[2.2.2]oct-5-en-2-yl)carbamoyl)phenoxy)-1-methylcyclohexane-1-carboxylic acid [Example 545]”, with 91%; and “(1R,4s)-4-(2-Fluoro-4-methoxy-5-(((1S*,2R*)-2-(neopentylcarbamoyl)cyclobutyl)carbamoyl)phenoxy)-1-methylcyclohexane-1-carboxylic acid [Example 569]”, with 97%.
The same measure, in the same setting: the value for “(1R,4s)-4-(2-Fluoro-4-methoxy-5-(((1S*,2R*,4R*)-4-methoxy-2-(neopentylcarbamoyl)cyclopentyl)carbamoyl)phenoxy)-1-methylcyclohexane-1-carboxylic acid [Example 547]” was 114%; that for “(1R,4s)-4-(2-Fluoro-4-methoxy-5-(((1S*,2S*,3R*,4R*)-3-((3-((trifluoromethyl)sulfonyl)phenyl)carbamoyl)bicyclo[2.2.1]heptan-2-yl)carbamoyl)phenoxy)-1-methylcyclohexane-1-carboxylic acid [Example 587]” was 113%.
Turning to “(1R,4s)-4-(2-Fluoro-4-methoxy-5-(((3S*,4R*)-4-(((1-methylcyclobutyl)methyl)carbamoyl)tetrahydrofuran-3-yl)carbamoyl)phenoxy)-1-(hydroxymethyl)cyclohexane-1-carboxylic acid [Example 581]”, the “Test A Sinf” value is given as 94%.
On the same count and under the same terms, then “(1R,4s)-4-(2-Fluoro-4-methoxy-5-(((3S*,4R*)-4-(neopentylcarbamoyl)tetrahydrofuran-3-yl)carbamoyl)phenoxy)-1-(hydroxymethyl)cyclohexane-1-carboxylic acid [Example 579]”, with 120%; and “(1R,4s)-4-(2-Fluoro-4-methoxy-5-(((3S*,4R*)-4-(neopentylcarbamoyl)tetrahydrofuran-3-yl)carbamoyl)phenoxy)-1-methylcyclohexane-1-carboxylic acid [Example 567]”, with 86%; and “(1R,4s)-4-(2-Fluoro-5-(((1S*,2R*)-2-((4-fluoro-3-(pentafluoro-λ6-sulfaneyl)phenyl)carbamoyl)cyclobutyl)carbamoyl)-4-methoxyphenoxy)-1-methylcyclohexane-1-carboxylic acid [Example 571]”, with 100%.
Same read-out and setting: the value for “(1R,4s)-4-(2-Fluoro-5-(((1S*,2S*,5S*)-2-hydroxy-5-((3-((trifluoromethyl)sulfonyl)phenyl)carbamoyl)cyclopentyl)carbamoyl)-4-methoxyphenoxy)-1-methylcyclohexane-1-carboxylic acid [Example 529]” was 96%; that for “(1R,4s)-4-(2-Fluoro-5-(((3S*,4R*)-4-((4-fluoro-3-(pentafluoro-λ6-sulfaneyl)phenyl)carbamoyl)tetrahydrofuran-3-yl)carbamoyl)-4-methoxyphenoxy)-1-methylcyclohexane-1-carboxylic acid [Example 565]” was 113%; that for “(1R,4s)-4-(2-Fluoro-5-(((3S*,4S*)-4-((4-fluoro-3-(pentafluoro-λ6-sulfaneyl)phenyl)carbamoyl)tetrahydro-2H-pyran-3-yl)carbamoyl)-4-methoxyphenoxy)-1-methylcyclohexane-1-carboxylic acid [Example 575]” was 101%.
Same read-out and setting: the value for “(1R,4s)-4-(2-fluoro-4-methoxy-5-(((1S*,2S*,5S*)-2-methoxy-5-((3-((trifluoromethyl)sulfonyl)phenyl)carbamoyl)cyclopentyl)carbamoyl)phenoxy)-1-methylcyclohexane-1-carboxylic acid [Example 527]” was 101%; that for “(1R,4s)-4-(2-fluoro-4-methoxy-5-(((3S*,4S*)-3-((3-((trifluoromethyl)sulfonyl)phenyl)carbamoyl)tetrahydro-2H-pyran-4-yl)carbamoyl)phenoxy)-1-methylcyclohexane-1-carboxylic acid [Example 519]” was 101%.
Take “(1R,4s)-4-(2-fluoro-5-(((1S*,2S*,3R*,4R*)-3-((4-fluoro-3-(pentafluoro-λ6-sulfaneyl)phenyl)carbamoyl)bicyclo[2.2.1]heptan-2-yl)carbamoyl)-4-methoxyphenoxy)-1-methylcyclohexane-1-carboxylic acid [Example 521]”: the “Test A Sinf” value turned out to be 99%.
